In patent US20190030114A1, “ISOFORM-SPECIFIC CALPAIN INHIBITORS, METHODS OF IDENTIFICATION, AND USES THEREOF” (WESTERN UNIVERSITY OF HEALTH SCIENCES, priority 2014, published 2019):
Where two headings read alike, the source gives them in different places.

Experiments:
[1] = system: retina (GCL, RGC), vision; assay: acute IOP elevation, intravitreal C2l: GCL cell death, OKR visual acuity, RGC density
Description: FIG. 12C: H&E staining in retinal sections of WT mice after IOP elevation and intravitreal injection of vehicle or C2l. Vehicle or C2l (20 μM, 1 μI) was injected 2 h after IOP elevation or sham surgery. Eyes were collected 3 days after surgery for H&E staining. Scale bar=30 μm.
FIG. 12D: Quantification of GCL cell numbers, based on H&E stains, as described in FIG. 12C.
FIG. 12F: OKR spatial frequency thresholds of eyes measured 3 days after IOP elevation or sham surgery. Vehicle or C2l (20 μM, 1 μI) was injected intravitreally 2 h after surgery. Surgery and injection were always performed in the right eye (OD). OKR of the Left eye (OS) was measured as control.
One-way ANOVA followed by Bonferroni test.
FIG. 12H: RGC density in the retina of the eyes at 21 days after surgery, as described in FIG. 12F. Eyes were collected after OKR test 21 days after surgery. Brn-3a immunostaining was performed in retinal sections of the eyes. Brn-3a-positive cells in GCL were counted.
We used intravitreal C2l injection in order to locally deliver C2l to retina. First, we tested the delivery efficiency by injecting different doses of C2l intravitreally 2 h after IOP elevation in calpain-1 KO mice and analyzing SBDP levels in IPL at 4 h (FIG. 12A and B). […] In all subsequent experiments, 20 μM (1 μl) was used to examine the neuroprotective effects of intravitreal C2l injection. Eyes were collected 3 days after surgery for H&E staining.
To examine vision of mice after glaucoma, we tested the optokinetic reflex (OKR) in mice (FIG. 15A). OKR is the saccadic eye movement triggered by the movement of gratings in front of the mouse eye. Changing the frequency of gratings and determining the […] frequency triggering OKR, allows analyzing visual acuity of each eye. Acute IOP elevation or sham surgery was performed in the right eye (OD). Left eye (OS) served as a naive control. Intravitreal C2l or vehicle injection was performed 2 h after surgery. Three and 21 days after surgery, OKR was determined in both eyes (FIG. 5f,g). […] Mice were sacrificed after OKR test at day 21 and RGC densities were analyzed with brn-3a immunostaining in retinal sections (FIG. 12H).

calpain-2 = molecular target: T1, calpain-2 (Homo sapiens, UniProt P17655); assay: in vitro calpain-2 inhibition, succinic-Leu-Tyr-AMC substrate; assay type: biochemical
T1 sequence (P17655 1-700): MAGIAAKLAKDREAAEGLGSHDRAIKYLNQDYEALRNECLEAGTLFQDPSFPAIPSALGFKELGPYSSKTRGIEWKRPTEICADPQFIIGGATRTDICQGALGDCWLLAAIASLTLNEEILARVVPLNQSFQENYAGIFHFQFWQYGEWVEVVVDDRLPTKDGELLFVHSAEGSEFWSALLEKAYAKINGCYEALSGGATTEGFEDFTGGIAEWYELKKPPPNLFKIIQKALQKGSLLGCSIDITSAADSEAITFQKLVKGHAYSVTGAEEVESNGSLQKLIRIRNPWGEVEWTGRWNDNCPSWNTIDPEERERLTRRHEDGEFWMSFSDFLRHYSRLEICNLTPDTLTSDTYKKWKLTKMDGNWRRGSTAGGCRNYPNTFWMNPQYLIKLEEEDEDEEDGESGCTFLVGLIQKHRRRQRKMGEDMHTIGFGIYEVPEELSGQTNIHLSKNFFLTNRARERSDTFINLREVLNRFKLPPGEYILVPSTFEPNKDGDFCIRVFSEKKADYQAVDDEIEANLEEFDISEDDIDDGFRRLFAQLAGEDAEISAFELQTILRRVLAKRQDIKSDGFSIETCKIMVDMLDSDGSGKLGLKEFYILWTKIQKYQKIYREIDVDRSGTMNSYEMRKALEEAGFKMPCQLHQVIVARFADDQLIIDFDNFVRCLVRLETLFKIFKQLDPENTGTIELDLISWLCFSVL
T1 sequence (P04632 1-268 partner): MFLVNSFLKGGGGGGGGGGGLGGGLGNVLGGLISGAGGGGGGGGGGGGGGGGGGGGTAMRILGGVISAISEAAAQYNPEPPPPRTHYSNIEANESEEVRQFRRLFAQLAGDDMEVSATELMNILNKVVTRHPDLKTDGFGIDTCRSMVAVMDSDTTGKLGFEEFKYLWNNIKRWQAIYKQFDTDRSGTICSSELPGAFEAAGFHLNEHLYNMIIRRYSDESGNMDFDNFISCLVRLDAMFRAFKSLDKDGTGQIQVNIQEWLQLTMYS
Description: Formula 1, where chiral center 1 is the L-form and chiral center 2 is a racemic mixture of D- and L- in this example was introduced at various concentrations (from 1 nM to 10 μM) into an in vitro mix comprising succinic-Leu-Tyr-AMC and calpain-1 or calpain-2 (Sasaki et al, 1984), and the kinetics of the loss of fluorescence were determined for each of the calpains (Powers et al, 2000). […] Therefore, the assessment of selectivity described herein was different than the prior teaching.
Formula 1A, where chiral center 1 is the S-form and chiral center 2 is the S-form was separated from the S-R-form (Formula 1B) using methods that are well-known methods for separating diastereoisomers. Formula 1A, which is also referred to herein as compound 18A, in this example was introduced at various concentrations into an in vitro mix comprising succinic-Leu-Tyr-AMC and μ-calpain or m-calpain (Sasaki et al, 1984), and the kinetics of the loss of fluorescence were determined for each of the calpains.

[2] = system: field CA1 in acute hippocampal slices from male UBEA mutant mice; assay: field EPSP recording, LTP in hippocampal slices from UBEA mutant mice (Angelman Syndrome model); assay type: cell-based; settings: 200 nM
Description: FIG. 4: Field recording of excitatory postsynaptic potentials (EPSPs) performed in stratum radiatum of field CA1 in acute hippocampal slices prepared from male UBEA mutant mice (a model of Angelman Syndrome) or their wild-type littermates in the presence or absence of 200 nM of the calpain-2 selective inhibitor, Formula I (mCalp-I in the drawing). Results are expressed as percent of the average values over a 10 min baseline period and are means±S.E.M. of the indicated number of experiments.
A calpain 2-specific inhibitor rescues LTP impairment in hippocampal slices from a mouse model of Angelman Syndrome. Field recording of excitatory postsynaptic potentials (EPSPs) was performed in stratum radiatum of field CA1 in acute hippocampal slices prepared from male UBEA mutant mice or their wild-type littermates.

CCC(NC(=O)C(CC(C)C)NC(=O)OCc1ccccc1)C(=O)C(=O)NCc1cc(OC)cc(OC)c1 (racemic) [Formula 1, Z-Leu-Abu-CONH—CH2-C6H3 (3, 5-(OMe)2)]
RGC counts (H&E), IOP-elevated eyes ([1]; 20 μM (1 μl) intravitreal 2 h after IOP elevation, 3 days): 101.3±9.2 cells/mm | Survival rate in GCL ([1]; 20 μM (1 μl) intravitreal 2 h after IOP elevation, vehicle 47.2±5.4%): 80.8±8.4% | RGC counts (H&E), sham eye ([1]; 20 μM (1 μl) intravitreal 2 h after surgery, 3 days): 128.1±7.2 cells/mm | RGC densities (brn-3a) in IOP elevated eyes ([1]; day 21): recovered | visual acuity (OKR) after increased IOP ([1]; intravitreal 2 h after surgery, day 3 and day 21): significantly improved | visual acuity (OKR) of sham eye versus vehicle ([1]; intravitreal injection in the sham eye): did not affect visual acuity | Ratio KiCalpain-1/KiCalpain-2 (calpain-2): 31.1 | Ki (calpain-2; Example 1, chiral center 2 racemic, read-out: Ki for calpain-2, determined herein): 25 nM | Ki (calpain-2; Example 13, n = 3-4, read-out: Ki Calpain-2): 21.3 nM | IC50 (calpain-2; n = 3-4): 210 nM | LTP magnitude in slices from UBEA mutant mice [2]: restored LTP magnitude to the level found in slices from wild-type mice | initial increase in fEPSP elicited by TBS [2]: no effect
